# Experimental data as given in patent US20100240682A1, “PHOPHYLACTIC OR THERAPEUTIC AGENT FOR INFLAMATORY DISEASE COMPRISING THYMIDINE PHOSPHORYLASE INHIBITOR AS ACTIVE INGREDIENT” (TAIHO PHARMACEUTICAL CO., LTD., priority 2007, published 2010).
# Legend:
# [1] = test system: rats having hydrochloric-acid-induced cystitis; assay: Hydrochloric-acid-induced rat interstitial cystitis model, histological changes of the bladder (HE staining); type: in vivo
# Procedure: To rats having hydrochloric-acid-induced cystitis serving as an interstitial cystitis model, TPI (50 or 500 mg/kg) was orally administered continuously for seven days, and the effect of TPI on pathological histological improvement of the bladder tissue was evaluated. Specifically, 10-week-old SD rats were divided into groups (n=6) on the basis of body weight. To each of the rats of a control group and TPI administration groups, 0.4N HCl (0.2 mL) was intravesically administered once to the bladder under pentobarbital anesthesia (50 mg/kg, i.p.), to thereby induce a cystitis model. To a Sham group, saline (0.2 mL) was intravesically administered. From the day following the induction of cystitis model, distilled water for injection (5 mL/kg) was administered to the Sham and control groups, while distilled water for injection (5 mL/kg) containing TPI (50 or 500 mg/kg) was administered to the TPI administration groups. In each case, the liquid was orally administered continuously once a day for seven days. On the day following the final administration day, the bladder was removed from each of the rats under ether anesthesia and washed with saline. Subsequently, the washed bladder was fixed with 20% buffered formalin and 10% buffered formalin, followed by HE staining. Histological changes of the bladder were observed. […]
# [2] = test system: IL-6 production in human monocytes cell line U937; assay: IL-6 production by PMA/thymidine-stimulated U937 cells; type: cell-based; details: U937 after 10 ng/mL PMA and 10 μmol/L thymidine; 48 h after drug addition; vs control group
# Procedure: Human monocytes cell line U937 were cultured using a 10% FBS RPMI 1640 medium (SIGMA-ALDRICH) at 37° C. under 5% CO2. Using a 24-well plate, U937 cells (1×10^5) were cultured for 24 hours in a medium containing 10 ng/mL phorbol-12-myristate-13-acetate (inflammatory substance, hereinafter abbreviated to as PMA) and 10 μmol/L thymidine in order for induction of inflammatory reaction. Twenty-four hours later, the medium was changed to fresh medium. To the drug administration group, TUPI or TPI was added. Forty-eight hours after the addition, the IL-6 level of each culture supernatant was determined by means of BioPlex (Bio-Rad Laboratories, Inc.).
# [3] = test system: rats in which ulcer had been induced by hydrochloric acid; assay: Hydrochloric-acid-induced acute gastritis model rat, gastric mucosal damage (lesion length); type: in vivo; details: control 120.4±8.5 mm
# Procedure: TPI (100 or 200 mg/kg) was orally single-administered to rats in which ulcer had been induced by hydrochloric acid (i.e., an acute gastritis model), and the preventive effect of TPI on mucosal damage was evaluated. Specifically, 7-week-old female SD rats (Charles River Laboratories Japan Inc.) were fasted for about 18 hours. To the TPI administration groups, TPI (100 or 200 mg/kg) was orally administered, and after 30 minutes 0.6N HCl (5 mL/kg) was orally administered. To the control group, only 0.6N HCl (5 mL/kg) was orally administered. One hour after administration of hydrochloric acid, rats were euthanized through, and the stomach was removed from each rat. The tissue thereof was fixed with 1% formaline buffer, and the stomach was cut through the greater curvature. The longer diameter (mm) of a lesion was measured by means of an electronic caliper, and the total of the diameters was employed as an index for evaluating gastric mucosal damage.
# collagen arthritis mice = assay: Collagen arthritis model mouse, arthritis score; type: in vivo; details: 500 mg/kg orally once a day; 11 to 14 days after second immunization
# Procedure: TPI (250 or 500 mg/kg) was orally administered to collagen arthritis mice (i.e., rheumatic model) continuously for 14 days, and the effect of TPI on edema of the limbs of each mouse was evaluated. Arthritis was induced in […] mice by type II collagen induction, and the mice were employed as a rheumatoid arthritis model. Specifically, type II collagen derived from bovine joint (K42, product of Collagen Gijyutsu Kensyukai) (200 μg) was suspended in Freund's complete adjuvant (DIFCO) (100 μL), and on day 1, the suspension was intradermally administered to the back of 8-week-old mice (DBA/1JN mice, Charles River Laboratories Japan Inc.). On day 21, type II collagen derived from bovine joint (K42) (200 μg) suspended in Freund's complete adjuvant (100 μL) was intradermally administered to the tail portion of each mice, to thereby induce an arthritis model. To the TPI administration groups, TPI (250 or 500 mg/kg/day) was orally administered continuously once a day during a period from day 21 to day 40. To the control, a solvent (0.5% aqueous HPMC) was administered instead of TPI according to the same administration schedule as employed in the TPI administration groups. […] The arthritis condition was evaluated on day 42; i.e., the day following the final administration day. […]
# [4] = test system: concanavalin-A-induced hepatitis model mice; assay: Concanavalin-A-induced hepatitis model, serum AST and ALT; type: in vivo, mouse; details: TPI 100 mg/kg oral, 30 min before concanavalin A i.v., 24 h after
# Procedure: TPI (100 mg/kg) was orally single-administered to […] in which hepatitis had been induced by concanavalin A (i.e., a hepatitis model), and the inhibitory effect of TPI on hepatitis was evaluated. Specifically, 6-week-old female C57BL/6NCrlCrlj mice (Charles River Laboratories Japan Inc.) were employed. To the TPI administration group, TPI (100 mg/kg) was orally administered, and after 30 minutes 2 mg/mL concanavalin A (150 μL/animal) was intravenously administered through the tail vein. To the control group, only a vehicle was orally administered instead of TPI. […] The serum ALT level (IU/L) and AST level (IU/L) were determined as index for liver disorders.
# [5] = test system: rats having hydrochloric-acid-induced cystitis; assay: Hydrochloric-acid-induced cystitis model rat, bladder functions by cystometry; type: in vivo; details: TPI 5, 50 or 100 mg/kg orally once a day for seven days; vs control group
# Procedure: To rats having hydrochloric-acid-induced cystitis serving as a cystitis model, 5-chloro-6-(2-iminopyrrolidin-1-yl)methyl-2,4(1H,3H)-pyrimidinedione hydrochloride (hereinafter abbreviated as “TPI”) (5, 50, or 100 mg/kg) was orally administered continuously for seven days, and the effect of TPI on bladder functions was evaluated. Specifically, 10-week-old SD rats were divided into groups (n=6) on the basis of body weight. To each of the rats of the control group and TPI administration groups, 0.4N HCl (0.2 mL) was intravesically administered once to the bladder under pentobarbital anesthesia (50 mg/kg, i.p.), to thereby induce a cystitis model. To a Sham group, saline (0.2 mL) was intravesically administered. From the day following the induction of cystitis model, distilled water for injection (5 mL/kg) was administered to the Sham and control groups, while distilled water for injection (5 mL/kg) containing TPI (5, 50, or 100 mg/kg) was administered to the TPI administration groups. In each case, the liquid was administered by forced oral administration once a day continuously for seven days. On the day following the final administration day, bladder functions (urination intervals and single urination output) of the rats of each group were evaluated through cystometry under anesthesia in accordance with a method described in BJU Int. 2007 October; 100(4): 935-9.
smiles,measurement,setting,value
"Cl.N=C1CCCN1Cc1[nH]c(=O)[nH]c(=O)c1Cl [TPI, 5-chloro-6-(2-iminopyrrolidin-1-yl)methyl-2,4(1H,3H)-pyrimidinedione hydrochloride]","Entire bladder: Thickening/proliferation of transitional epithelium, number of samples","[1]; TAS-111 (50), grade +",1
same,"Lamina propria: Edema, number of samples","[1]; TAS-111 (50), grade +",0
same,"Lamina propria: Infiltration of mast cells/eosinocytes, number of samples","[1]; TAS-111 (50), grade +",1
same,"Tunica muscularis: Edema, number of samples","[1]; TAS-111 (50), grade +",2
same,"Tunica muscularis: Infiltration of mast cells/eosinocytes, number of samples","[1]; TAS-111 (50), grade +",2
same,"Entire bladder: Thickening/proliferation of transitional epithelium, number of samples","[1]; TAS-111 (50), grade ++",2
same,"Lamina propria: Edema, number of samples","[1]; TAS-111 (50), grade ++",2
same,"Lamina propria: Infiltration of mast cells/eosinocytes, number of samples","[1]; TAS-111 (50), grade ++",2
same,"Tunica muscularis: Edema, number of samples","[1]; TAS-111 (50), grade ++",0
same,"Tunica muscularis: Infiltration of mast cells/eosinocytes, number of samples","[1]; TAS-111 (50), grade ++",0
same,"Entire bladder: Thickening/proliferation of transitional epithelium, number of samples","[1]; TAS-111 (50), grade +++",0
same,"Lamina propria: Edema, number of samples","[1]; TAS-111 (50), grade +++",0
same,"Lamina propria: Infiltration of mast cells/eosinocytes, number of samples","[1]; TAS-111 (50), grade +++",0
same,"Tunica muscularis: Edema, number of samples","[1]; TAS-111 (50), grade +++",0
same,"Tunica muscularis: Infiltration of mast cells/eosinocytes, number of samples","[1]; TAS-111 (50), grade +++",0
same,"Entire bladder: Thickening/proliferation of transitional epithelium, number of samples","[1]; TAS-111 (500), grade +",1
same,"Lamina propria: Edema, number of samples","[1]; TAS-111 (500), grade +",0
same,"Lamina propria: Infiltration of mast cells/eosinocytes, number of samples","[1]; TAS-111 (500), grade +",2
same,"Tunica muscularis: Edema, number of samples","[1]; TAS-111 (500), grade +",0
same,"Tunica muscularis: Infiltration of mast cells/eosinocytes, number of samples","[1]; TAS-111 (500), grade +",0
same,"Entire bladder: Thickening/proliferation of transitional epithelium, number of samples","[1]; TAS-111 (500), grade ++",0
same,"Lamina propria: Edema, number of samples","[1]; TAS-111 (500), grade ++",1
same,"Lamina propria: Infiltration of mast cells/eosinocytes, number of samples","[1]; TAS-111 (500), grade ++",0
same,"Tunica muscularis: Edema, number of samples","[1]; TAS-111 (500), grade ++",0
same,"Tunica muscularis: Infiltration of mast cells/eosinocytes, number of samples","[1]; TAS-111 (500), grade ++",0
same,"Entire bladder: Thickening/proliferation of transitional epithelium, number of samples","[1]; TAS-111 (500), grade +++",0
same,"Lamina propria: Edema, number of samples","[1]; TAS-111 (500), grade +++",0
same,"Lamina propria: Infiltration of mast cells/eosinocytes, number of samples","[1]; TAS-111 (500), grade +++",0
same,"Tunica muscularis: Edema, number of samples","[1]; TAS-111 (500), grade +++",0
same,"Tunica muscularis: Infiltration of mast cells/eosinocytes, number of samples","[1]; TAS-111 (500), grade +++",0
same,IL-6 level of culture supernatant,[2],more significant suppression
same,gastric mucosal damage (total of longer diameters of lesions),"[3]; TPI 100 mg/kg oral single dose 30 min before 0.6N HCl, significantly reduced",63.0±14.3 mm
same,gastric mucosal damage (total of longer diameters of lesions),[3]; TPI 200 mg/kg oral single dose 30 min before 0.6N HCl,76.1±18.3 mm
same,arthritis scores,collagen arthritis mice,significant suppression
same,serum AST level,"[4]; control 4,506±864","1,540±477 IU/L"
same,serum ALT level,"[4]; control 6,130±800","2,538±755 IU/L"
same,"bladder functions (urination interval, single urination output, effective vesical capacity, residual urine)",[5],improved in response to the administration amount
"Nc1[nH]c(=O)[nH]c(=O)c1Cl [TUPI, 5-chloro-6-aminouracil, reference compound]",IL-6 level of culture supernatant,[2],more significant suppression
